One may read the inhibition as the percentage by which the read-out fell short of the control.

The target of assay [1] is T1, human recombinant histamine H2 receptor (Homo sapiens, UniProt P25021).
T1 construct: expressed in transfected cells; host or cells: CHO-K1 cells
The experiment in a line: Histamine H2 radioligand binding ([125I]Aminopotentidine). Put shortly:
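Test compounds were assessed for their ability to displace radioligand from the human recombinant histamine H2 receptor. Non-specific binding was determined in the presence of 3 μM Tiotidine, and results were expressed as percent inhibition of specific binding, with 1% DMSO serving as the vehicle.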

For assay [2], the target named is T2, human recombinant adrenergic α1D receptor (Homo sapiens, UniProt P25100).
T2 construct: expressed in transfected cells; host or cells: HEK-293 cells
T2 sequence (P25100 1-572): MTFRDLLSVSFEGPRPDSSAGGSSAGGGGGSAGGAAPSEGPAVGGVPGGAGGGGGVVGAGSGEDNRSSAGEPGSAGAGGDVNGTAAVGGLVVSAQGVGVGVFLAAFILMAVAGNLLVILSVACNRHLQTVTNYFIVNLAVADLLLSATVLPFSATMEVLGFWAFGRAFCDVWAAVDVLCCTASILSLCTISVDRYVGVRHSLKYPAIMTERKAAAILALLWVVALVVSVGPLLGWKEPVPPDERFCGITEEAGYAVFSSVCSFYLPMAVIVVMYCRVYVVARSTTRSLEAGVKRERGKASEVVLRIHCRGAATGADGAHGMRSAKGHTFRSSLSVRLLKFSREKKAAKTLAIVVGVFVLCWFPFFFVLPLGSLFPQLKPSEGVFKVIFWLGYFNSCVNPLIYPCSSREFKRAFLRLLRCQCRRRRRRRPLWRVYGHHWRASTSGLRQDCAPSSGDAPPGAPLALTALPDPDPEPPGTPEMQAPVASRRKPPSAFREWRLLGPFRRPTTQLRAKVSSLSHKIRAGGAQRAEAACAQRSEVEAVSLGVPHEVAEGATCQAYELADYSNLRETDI
The assay is described as follows: Adrenergic α1D radioligand binding ([3H]Prozosin). More on the design: Inhibition of ligand binding, Adren. alpha1D: concentration or dose not given beside the values. The note with it: percent inhibition of specific binding. The method, then: Compounds of invention were incubated with 0.6 nM [^3H]Prozosin for 60 minutes at 25° C. Non-specific binding was estimated in the presence of 10 μM phentolamine. Receptor proteins were filtered and washed, the filters were then counted to determine [^3H]Prozosin specifically bound. […] Biochemical assay results are presented as the percent inhibition of specific binding in Table 6.

For assay [3], the target named is T3, human recombinant adrenergic α2A receptor (Homo sapiens, UniProt P08913).
T3 construct: expressed in transfected cells; host or cells: insect Sf9 cells
T3 sequence (P08913 1-465): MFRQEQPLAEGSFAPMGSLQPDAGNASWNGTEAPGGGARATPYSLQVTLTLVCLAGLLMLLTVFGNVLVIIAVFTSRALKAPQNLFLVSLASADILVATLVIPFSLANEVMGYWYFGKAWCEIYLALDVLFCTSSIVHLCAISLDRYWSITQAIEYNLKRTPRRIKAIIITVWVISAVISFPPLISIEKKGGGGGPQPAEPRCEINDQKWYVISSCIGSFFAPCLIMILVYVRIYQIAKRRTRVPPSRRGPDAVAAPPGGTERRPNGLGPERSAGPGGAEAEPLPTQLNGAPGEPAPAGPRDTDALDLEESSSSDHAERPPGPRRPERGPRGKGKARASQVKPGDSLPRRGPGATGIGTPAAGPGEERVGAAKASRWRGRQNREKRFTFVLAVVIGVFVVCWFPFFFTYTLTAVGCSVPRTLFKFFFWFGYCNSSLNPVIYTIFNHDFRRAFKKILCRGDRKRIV
The experiment in a line: Adrenergic α2A radioligand binding ([3H]MK-912). More on the design: Inhibition of ligand binding, Adren. alpha2A: concentration or dose not given beside the values. The note with it: percent inhibition of specific binding. Put shortly: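 Membranes from Sf9 cells expressing the receptor were incubated with 1 nM [3H]MK-912 for 60 minutes at 25° C in 50 mM Tris-HCl pH 7.4, 12.5 mM MgCl2, 2 mM EDTA. 10 μM WB-4101 defined non-specific binding. Values are percent inhibition of specific bound radioactivity after filtration.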

In assay [4] the target is T4, human recombinant dopamine D2L receptor (Homo sapiens, UniProt P14416).
T4 construct: expressed in transfected cells; host or cells: CHO cells
The assay is described as follows: Dopamine D2L radioligand binding ([3H]Spiperone). To be noted: percent inhibition of specific binding. Here is the method: Non-specific binding was estimated in the presence of 10 μM Haloperidol. Receptor proteins were filtered and washed, the filters were then counted to determine [^3H]Spiperone specifically bound. […] Biochemical assay results are presented as the percent inhibition of specific binding in Table 6.

In assay [5] the target is T5, human recombinant serotonin (5-Hydroxytryptamine) 5-HT2A receptor (Homo sapiens, UniProt P28223).
T5 construct: expressed in transfected cells; host or cells: CHO-K1 cells
The assay is described as follows: Serotonin 5-HT2A radioligand binding ([3H]Ketanserin). To be noted: percent inhibition of specific binding. Here is the method: Compounds of the invention were incubated with 0.5 nM [^3H]Ketanserin for 60 minutes at 25° C. Non-specific binding was estimated in the presence of 1 μM Mianserin. Receptor proteins were filtered and washed, the filters were then counted to determine [^3H]Ketanserin specifically bound. […] Biochemical assay results are presented as the percent inhibition of specific binding in Table 6.

The target in assay [6] is T6, Serotonin (5-Hydroxytryptamine) 5-HT7 (Homo sapiens, UniProt P34969).
T6 construct: expressed in transfected cells; host or cells: CHO cells
The experiment in a line: Serotonin 5-HT7 radioligand binding ([3H]LSD). Details: Inhibition of ligand binding, Ser. 5-HT7: concentration or dose not given beside the values. The note with it: percent inhibition of specific binding. Here is the method:
Lysergic acid diethylamide (LSD) for 2 hours at 25° C. […] Receptor proteins were filtered and washed, the filters were then counted to determine [^3H]LSD specifically bound. […] Biochemical assay results are presented as the percent inhibition of specific binding in Table 6.

Where [7] appears, read: percent inhibition of specific binding, screened at 1 μM, read-out: Inhibition of ligand binding, Hist. H2.

Read-outs that look alike come from different tables or passages of the source.

T6 sequence (P34969 whole entry): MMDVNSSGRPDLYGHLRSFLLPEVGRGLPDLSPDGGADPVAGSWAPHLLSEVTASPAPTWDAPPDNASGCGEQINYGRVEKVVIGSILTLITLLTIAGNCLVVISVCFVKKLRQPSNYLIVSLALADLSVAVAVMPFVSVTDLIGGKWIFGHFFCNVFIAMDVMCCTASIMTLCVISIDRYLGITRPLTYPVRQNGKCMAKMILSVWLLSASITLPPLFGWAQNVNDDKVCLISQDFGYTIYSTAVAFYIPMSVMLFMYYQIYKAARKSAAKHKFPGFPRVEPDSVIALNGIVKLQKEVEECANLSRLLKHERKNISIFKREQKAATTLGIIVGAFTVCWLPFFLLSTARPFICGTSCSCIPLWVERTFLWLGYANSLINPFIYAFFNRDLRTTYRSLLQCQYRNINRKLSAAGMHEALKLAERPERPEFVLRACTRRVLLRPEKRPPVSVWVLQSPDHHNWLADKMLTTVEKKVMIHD
T5 sequence (P28223 whole entry): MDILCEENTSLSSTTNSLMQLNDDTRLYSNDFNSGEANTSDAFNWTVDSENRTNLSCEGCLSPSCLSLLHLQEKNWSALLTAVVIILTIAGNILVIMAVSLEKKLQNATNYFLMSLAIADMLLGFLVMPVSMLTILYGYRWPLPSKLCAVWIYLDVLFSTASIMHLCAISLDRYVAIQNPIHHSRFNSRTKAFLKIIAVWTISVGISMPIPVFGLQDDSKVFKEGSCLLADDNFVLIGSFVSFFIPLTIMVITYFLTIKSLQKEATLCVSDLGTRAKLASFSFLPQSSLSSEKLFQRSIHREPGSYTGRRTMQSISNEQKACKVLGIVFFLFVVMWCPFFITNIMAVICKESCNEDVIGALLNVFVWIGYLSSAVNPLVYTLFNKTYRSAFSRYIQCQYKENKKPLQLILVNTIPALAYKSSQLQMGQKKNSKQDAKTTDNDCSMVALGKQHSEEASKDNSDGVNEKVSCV
T1 sequence (P25021 whole entry): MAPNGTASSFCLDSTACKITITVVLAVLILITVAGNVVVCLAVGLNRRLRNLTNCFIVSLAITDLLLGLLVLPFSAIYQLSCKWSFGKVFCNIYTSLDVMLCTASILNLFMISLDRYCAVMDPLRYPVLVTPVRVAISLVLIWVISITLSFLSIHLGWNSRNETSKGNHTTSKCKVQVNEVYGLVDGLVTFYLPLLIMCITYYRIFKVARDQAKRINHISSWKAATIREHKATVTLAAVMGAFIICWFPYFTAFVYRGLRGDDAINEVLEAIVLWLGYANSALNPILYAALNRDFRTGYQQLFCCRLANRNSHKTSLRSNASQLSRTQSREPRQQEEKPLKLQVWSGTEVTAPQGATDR
T4 sequence (P14416 whole entry): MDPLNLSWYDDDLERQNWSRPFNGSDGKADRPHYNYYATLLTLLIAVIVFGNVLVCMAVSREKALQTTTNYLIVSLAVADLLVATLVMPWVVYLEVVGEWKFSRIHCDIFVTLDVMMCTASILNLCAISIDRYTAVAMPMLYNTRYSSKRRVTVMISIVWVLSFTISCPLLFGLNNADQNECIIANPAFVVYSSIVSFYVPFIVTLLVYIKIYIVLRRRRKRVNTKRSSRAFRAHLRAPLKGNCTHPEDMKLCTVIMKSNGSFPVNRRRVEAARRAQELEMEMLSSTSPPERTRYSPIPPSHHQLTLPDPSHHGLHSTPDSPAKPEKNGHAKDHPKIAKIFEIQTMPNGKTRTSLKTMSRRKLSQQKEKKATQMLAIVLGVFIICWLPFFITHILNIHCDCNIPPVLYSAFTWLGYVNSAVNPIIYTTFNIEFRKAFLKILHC

For `CN1CCc2c(c3ccccc3n2CCc2ccccc2)C1` [Compound 2, 2,3,4,5-tetrahydro-2-methyl-5-phenethyl-1H-pyrido[4,3-b]indole], the inhibition at 0.1 µM in assay [1] (0.1 μM compound, 0.1 nM [125I]Aminopotentidine, read-out: Histamine Binding H2, percent inhibition of specific binding) was 34%. Further, the inhibition at 0.3 µM in assay [1] (0.3 μM compound, 0.1 nM [125I]Aminopotentidine, read-out: Histamine Binding H2, percent inhibition of specific binding) turned out to be 56%. The inhibition at 1 µM in assay [1] (1 μM compound, 0.1 nM [125I]Aminopotentidine, read-out: Histamine Binding H2, percent inhibition of specific binding) was found to be 81%; in assay [1] (setting [7]) it was 81%. Further, the “Inhibition of ligand binding, Adren. alpha1D” value (“Inhibition … Adren. alpha1D” for short) in assay [2] turned out to be 72%. For the same compound, the “Inhibition of ligand binding, Adren. alpha2A” value (from here on “Inhibition … Adren. alpha2A”) in assay [3] is on record as 94%. For the same compound, the “Inhibition of ligand binding, Dop. D2L” value in assay [4] was found to be 70%. The “Inhibition of ligand binding, Ser. 5-HT2A” value (from here on “Inhibition … Ser. 5-HT2A”) in assay [5] amounted to 96%. For the same compound, in assay [6], the “Inhibition of ligand binding, Ser. 5-HT7” value was 100%.
Regarding `CN1CCc2c(c3cc(Cl)ccc3n2CCc2ccncc2)C1` [Compound 56], the inhibition at 1 µM in assay [1] (setting [7]) came to 76%. Also, the “Inhibition … Adren. alpha1D” value in assay [2] came out at 91%. Also, the “Inhibition … Adren. alpha2A” value in assay [3] is 95%. Moreover, the “Inhibition of ligand binding, Dop. D2L” value in assay [4] was determined as 62%. Besides, in assay [5], the “Inhibition … Ser. 5-HT2A” value was determined as 92%. Further, in assay [6], the “Inhibition of ligand binding, Ser. 5-HT7” value is recorded as 91%.
As for `Cc1ccc2c(c1)c1c(n2CCc2ccc(C(F)(F)F)nc2)CCN(C)C1` [Compound 68], the inhibition at 1 µM in assay [1] (setting [7]) turned out to be 49%. In addition, the “Inhibition … Adren. alpha1D” value in assay [2] was 98%. For the same compound, in assay [3], the “Inhibition … Adren. alpha2A” value stood at 94%. The “Inhibition of ligand binding, Dop. D2L” value in assay [4] worked out at 29%. In assay [5], the “Inhibition … Ser. 5-HT2A” value amounted to 98%. The “Inhibition of ligand binding, Ser. 5-HT7” value in assay [6] amounted to 103%.
In the case of `CN1CCc2c(c3cc(Cl)ccc3n2CCn2cccc2)C1` [Compound 349, 8-Chloro-2-methyl-5-(2-pyrrol-1-yl-ethyl)-2,3,4,5-tetrahydro-1H-pyrido[4,3-b]indole], the inhibition at 1 µM in assay [1] (setting [7]) was 94%. Besides, in assay [2], the “Inhibition … Adren. alpha1D” value was found to be 100%. Also, the “Inhibition … Adren. alpha2A” value in assay [3] was 96%. In addition, the “Inhibition of ligand binding, Dop. D2L” value in assay [4] was found to be 86%. Also, the “Inhibition … Ser. 5-HT2A” value in assay [5] stood at 97%. Besides, in assay [6], the “Inhibition of ligand binding, Ser. 5-HT7” value was 100%.
For the compound `Cc1ccc2c(c1)c1c(n2CCc2ccc(C(C)C)nc2)CCN(C)C1` [Compound 360, 5-[2-(6-Isopropyl-pyridin-3-yl)-ethyl]-2,8-dimethyl-2,3,4,5-tetrahydro-1H-pyrido[4,3-b]indole], the inhibition at 1 µM in assay [1] (setting [7]) turned out to be 75%. Further, the “Inhibition … Adren. alpha1D” value in assay [2] came to 96%. The “Inhibition … Adren. alpha2A” value in assay [3] was 101%. Also, the “Inhibition of ligand binding, Dop. D2L” value in assay [4] amounted to 37%. Besides, the “Inhibition … Ser. 5-HT2A” value in assay [5] turned out to be 97%. The “Inhibition of ligand binding, Ser. 5-HT7” value in assay [6] stood at 91%.
`CC(C)c1ccc(CCn2c3c(c4cc(Cl)ccc42)CN(C)CC3)cn1` [Compound 372, 8-Chloro-5-[2-(6-isopropyl-pyridin-3-yl)-ethyl]-2-methyl-2,3,4,5-tetrahydro-1H-pyrido[4,3-b]indole]: in assay [1] (setting [7]), the inhibition at 1 µM was 82%. The “Inhibition … Adren. alpha1D” value in assay [2] worked out at 94%. In addition, in assay [3], the “Inhibition … Adren. alpha2A” value is recorded as 100%. In assay [4], the “Inhibition of ligand binding, Dop. D2L” value worked out at 44%. In addition, the “Inhibition … Ser. 5-HT2A” value in assay [5] turned out to be 96%. For the same compound, the “Inhibition of ligand binding, Ser. 5-HT7” value in assay [6] is 94%.
As to `Cc1ccc2c(c1)c1c(n2CC(=O)N2CCCCC2)CCN(C)C1` [Compound 395, 2-(1,2,3,4-tetrahydro-2,8-dimethylpyrido[4,3-b]indol-5-yl)-1-(piperidin-1-yl)ethanone], in assay [1] (setting [7]), the inhibition at 1 µM came out at 4%. For the same compound, the “Inhibition … Adren. alpha1D” value in assay [2] is 9%. Moreover, the “Inhibition … Adren. alpha2A” value in assay [3] is 4%. Further, in assay [4], the “Inhibition of ligand binding, Dop. D2L” value was 2%. In assay [5], the “Inhibition … Ser. 5-HT2A” value turned out to be 16%. Besides, the “Inhibition of ligand binding, Ser. 5-HT7” value in assay [6] was 24%.
On to `CCCc1ccc(CCn2c3c(c4cc(C)ccc42)CN(C)CC3)cn1` [Compound 452, 2,8-Dimethyl-5-[2-(6-propyl-pyridin-3-yl)-ethyl]-2,3,4,5-tetrahydro-1H-pyrido[4,3-b]indole], for which the inhibition at 1 µM in assay [1] (setting [7]) amounted to 92%. In addition, the “Inhibition … Adren. alpha1D” value in assay [2] is 82%. Also, in assay [3], the “Inhibition … Adren. alpha2A” value amounted to 92%. Besides, in assay [4], the “Inhibition of ligand binding, Dop. D2L” value was found to be 52%. Besides, in assay [5], the “Inhibition … Ser. 5-HT2A” value is recorded as 97%. Further, the “Inhibition of ligand binding, Ser. 5-HT7” value in assay [6] came to 96%.
As to `CC(Cn1c2c(c3ccccc31)CN(C)CC2)c1ccc(F)cc1` (stereo not drawn) [Compound 455], in assay [1] (setting [7]), the inhibition at 1 µM came to 91%. Moreover, in assay [2], the “Inhibition … Adren. alpha1D” value amounted to 81%. The “Inhibition … Adren. alpha2A” value in assay [3] worked out at 93%. Also, the “Inhibition of ligand binding, Dop. D2L” value in assay [4] came out at 88%. Further, the “Inhibition … Ser. 5-HT2A” value in assay [5] is on record as 99%. Also, in assay [6], the “Inhibition of ligand binding, Ser. 5-HT7” value came out at 98%.

For the origin of these results see US9096591B2, “Tetracyclic compounds” (Medivation Technologies, Inc., priority 2007, dated 2015).
